Broadly, the Ki is a dissociation constant, usually derived from enzyme kinetics or from competition with a known ligand. As a reminder, the bioavailability is the share of a dose that reaches the circulation, judged against a reference dose that is usually intravenous. Lower therefore signals little systemic uptake. What is called half-life is how long it takes for the measured level to halve. A higher half-life goes with slow decline. As a reminder, the fraction unbound is the share of the substance not bound to proteins or other matrix.

Data set [1] addresses T1, Coagulation factor VII/tissue factor (Homo sapiens, UniProt P08709). Description: Inhibition of human TF-factor 7a ([…] residues) using factor 10 as substrate after 60 mins. It counts as protein-complex assay.
The nature of data set [2]: Permeability from apical to basolateral side in human Caco2 cells. To be noted: Caco-2, read-out: permeability. It is filed as ADME, cell-based.
A short description of data set [3]: Permeability from basolateral to apical side in human Caco2 cells. It is filed as ADME, cell-based. To be noted: Caco-2, read-out: permeability.
Data set [4] can be described thus: Oral bioavailability in Beagle dog. It counts as ADME, organism-based, Canis lupus familiaris. To be noted: in vivo.
Data set [5] in a line: Clearance in po or iv dosed Beagle dog by LC-MS/MS analysis. To be noted: in vivo. It counts as ADME, organism-based, Canis lupus familiaris.
The nature of data set [6]: Half life in Beagle dog liver microsomes at 3 uM by LC-MS/MS analysis. It is filed as ADME, Canis lupus familiaris. For orientation: Liver microsomes are a subcellular fraction often used to study metabolism.
Data set [7] deals with T1, Coagulation factor VII/tissue factor. Description: Inhibition of recombinant human TF-factor 7a using factor 10 as substrate at 37 degC. It counts as protein-complex assay.
Data set [8] is described as follows: Half-life in human liver microsomes. It counts as ADME.
Data set [9] in a line: Anticlotting activity in human factor 7 immunodepleted plasma mixed with normal pooled plasma from different species assessed compound causing 2 times increase in prothrombin time after 3 mins relative to baseline control. It is filed as functional.
Another data set deals with Kallikrein-1 (Homo sapiens, UniProt P06870). Description: Inhibition of human kallikrein1 at 37 degC by chromogenic substrate assay.
The nature of data set [10]: Inhibition of trypsin (unknown origin) at 25 degC by chromogenic substrate assay. Also noted: species or system Homo sapiens.
Another data set has as its target Coagulation factor X (Homo sapiens, UniProt P00742). Description: Inhibition of factor 10a (unknown origin) at 25 degC by chromogenic substrate assay.
The target of another data set is Prothrombin (Homo sapiens, UniProt P00734). The data set can be described thus: Inhibition of thrombin (unknown origin) at 25 degC by chromogenic substrate assay.
The species entered for data set [11] is Homo sapiens. The data set can be described thus: Selectivity ratio of Ki for human kallikrein1 to Ki for recombinant human TF-factor 7a.
For data set [12], the target named is Vitamin K-dependent protein C (Homo sapiens, UniProt P04070). Description: Inhibition of activated protein C (unknown origin) at 37 degC by chromogenic substrate assay.
Data set [13] in a line: Clearance in iv dosed dog. It counts as ADME, organism-based, Canis lupus familiaris. To be noted: in vivo.
Data set [14] is described as follows: Fraction unbound in human plasma. It counts as ADME, cell-free.
The nature of data set [15]: Permeability of the compound at pH 7.4 by PAMPA assay. To be noted: read-out: permeability. It is filed as ADME. (In general: PAMPA measures passive passage across an artificial lipid membrane.)
Data set [16] can be described thus: Permeability of the compound at pH 5.5 by PAMPA assay. It counts as ADME. The following applies: read-out: permeability.
Data set [17] is filed under the species Homo sapiens. Description: Selectivity ratio of Ki for thrombin (unknown origin) to Ki for human factor 7a ([…] residues).
For data set [18], the species on record is Homo sapiens. Description: Selectivity ratio of Ki for trypsin (unknown origin) to Ki for human factor 7a ([…] residues).
For data set [19], the species on record is Homo sapiens. The data set can be described thus: Selectivity ratio of Ki for factor 10a (unknown origin) to Ki for human factor 7a ([…] residues).
The species named for data set [20] is Homo sapiens. Description: Selectivity ratio of Ki for factor 9a (unknown origin) to Ki for human factor 7a ([…] residues).
Data set [21] is described as follows: Metabolic stability in human liver microsomes assessed as compound remaining after 10 mins. It is filed as ADME. To be noted: read-out: Stability.
Data set [22] is described as follows: Oral bioavailability in iv dosed dog. It counts as ADME, organism-based, Canis lupus familiaris. To be noted: in vivo.

Regarding `Cc1cc2ccc1[C@@H](C)COC(=O)Nc1ccc(C3CC3)c(c1)CN(C)C(=O)[C@@H]2Nc1ccc2c(N)nccc2c1`, the Ki in data set [1] came to 2 nM. In addition, the Papp A→B in data set [2] is less than 1.5 ×10⁻⁶ cm/s. For the same molecule, the Papp B→A in [3] came to 9.3 ×10⁻⁶ cm/s. The same molecule returned a bioavailability in [4] of 12%. Besides, the clearance in data set [5] came out at 2.2 mL/min/kg. The half-life at 3 µM in [6] was 3.33 h.
On to `Cc1cc2ccc1[C@@H](C)COC(=O)Nc1ccc(C3CC3)c(c1)CN(C)C(=O)[C@@H]2Nc1ccc2c(N)ncc(F)c2c1`, for which the Ki in data set [7] is 18 nM; at Kallikrein-1 it was 15 nM; in data set [10], more than 6200 nM; on Coagulation factor X, 3000 nM; on Prothrombin, 18000 nM; in data set [12], 220 nM. Further, the half-life in data set [8] was determined as 0.383 h. Also, the EC in data set [9] amounted to 32 µM. In the data set filed under Homo sapiens [11], the Ratio Ki was 0.8.
Molecule `Cc1cc2ccc1[C@@H](C)COC(=O)Nc1ccc(C3(C(=O)O)CCCC3)c(c1)CN(C)C(=O)[C@@H]2Nc1ccc2c(N)ncc(F)c2c1` yielded a clearance in data set [13] of 54 mL/min/kg. For the same molecule, the Ki in data set [7] is 0.22 nM; on Kallikrein-1, 1600 nM; in [10], 2200 nM; on Coagulation factor X, 1800 nM; on Prothrombin, more than 13300 nM; in data set [12], 340 nM. Further, in data set [14], the fraction unbound turned out to be 0.028. The molecule further gave an EC in data set [9] of 6.6 µM. In addition, the Papp in data set [15] was found to be 4 ×10⁻⁶ cm/s; in [16], 21.1 ×10⁻⁶ cm/s.
As to `CCS(=O)(=O)c1ccc2cc1CNC(=O)[C@H](Nc1ccc3c(N)nccc3c1)c1ccc(c(C)c1)CCOC(=O)N2`, the Ratio Ki in the data set listed under Homo sapiens [17], in the data set filed under Homo sapiens [18], in the data set filed under Homo sapiens [19] and in the data set listed under Homo sapiens [20] was more than 500 in each case. The molecule further came in with an EC in data set [9] of 1.2 µM.
With `Cc1cc2ccc1[C@@H](C)COC(=O)Nc1ccc(C3(C(=O)O)CC3)c(c1)CN(C)C(=O)[C@@H]2Nc1ccc2c(N)ncc(F)c2c1`, the remaining at 10 min in data set [21] was 100%. In data set [14], this molecule had a free fraction (fraction unbound) of 0.044. In data set [9], this molecule returned an EC of 4.7 µM. For the same molecule, the Papp was found to be 11.7 ×10⁻⁶ cm/s in [15] and 33.7 ×10⁻⁶ cm/s in data set [16]. In addition, the Ki was 2750 nM in [10], 6650 nM on Coagulation factor X, more than 13300 nM at Prothrombin and 70 nM in data set [12].
Turning to `Cc1cc2ccc1[C@@H](C)COC(=O)Nc1ccc(C3(C(=O)O)CCC3)c(c1)CN(C)C(=O)[C@@H]2Nc1ccc2c(N)ncc(F)c2c1`, the clearance in [13] came to 56 mL/min/kg. Moreover, the Ki in data set [7] was 0.14 nM; on Kallikrein-1, 1150 nM; in data set [10], 3400 nM; at Coagulation factor X, 850 nM; on Prothrombin, more than 13300 nM; in data set [12], 725 nM. In [8], this molecule came in with a half-life of more than 2 h. The molecule also registered a fraction unbound in data set [14] of 0.033. In [9], the EC is 7.9 µM. Also, the Papp in [15] is 3.4 ×10⁻⁶ cm/s; in data set [16], 20.9 ×10⁻⁶ cm/s.
Consider `Cc1cc2ccc1[C@@H](C)COC(=O)Nc1ccc(C3(C(=O)O)CCCCC3)c(c1)CN(C)C(=O)[C@@H]2Nc1ccc2c(N)ncc(F)c2c1`, for which the Ki was 0.06 nM in [7]; 1200 nM on Kallikrein-1; 505 nM in [10]; 900 nM at Coagulation factor X; more than 13300 nM on Prothrombin; 155 nM in data set [12]. In data set [8], this molecule gave a half-life of 1.57 h. In addition, the free fraction (fraction unbound) in data set [14] turned out to be 0.017. The EC in data set [9] is 18 µM. The Papp in [15] was 8 ×10⁻⁶ cm/s; in data set [16], 80.5 ×10⁻⁶ cm/s.
With `Cc1cc2ccc1[C@@H](C)COC(=O)Nc1ccc(C3(C(=O)O)CCOCC3)c(c1)CN(C)C(=O)[C@@H]2Nc1ccc2c(N)ncc(F)c2c1`, the inhibition constant Ki in data set [7] was 4.4 nM; at Kallikrein-1, 5300 nM; in [10] it was more than 6200 nM; at Coagulation factor X, 1400 nM; at Prothrombin it was more than 13300 nM; in data set [12], 1600 nM. This molecule also came in with a half-life in [8] of more than 2 h. Also, the fraction unbound in data set [14] was 0.058. The EC in [9] stood at 11 µM. Also, the results for the Papp in data set [15] and in data set [16] were 2.1 ×10⁻⁶ cm/s and 2.6 ×10⁻⁶ cm/s, respectively.
On to `Cc1cc2ccc1[C@@H](C)COC(=O)Nc1ccc(C3(c4nnn[nH]4)CC3)c(c1)CN(C)C(=O)[C@@H]2Nc1ccc2c(N)ncc(F)c2c1`, for which the bioavailability in [22] was 2%. In data set [13], this molecule had a clearance of 7 mL/min/kg. Besides, the inhibition constant (Ki) in data set [7] is 0.72 nM; at Kallikrein-1 it was 960 nM; in data set [10] it was 4900 nM; on Coagulation factor X it was 1050 nM; at Prothrombin, more than 13300 nM; in data set [12], 175 nM. For the same molecule, the half-life in data set [8] amounted to 1.9 h. The molecule further yielded a fraction unbound in [14] of 0.018. The same molecule came in with an EC in data set [9] of 10 µM. Moreover, the figures for the Papp in [15] and in data set [16] were 4.8 ×10⁻⁶ cm/s and 11.9 ×10⁻⁶ cm/s, respectively.
`Cc1cc2ccc1[C@@H](C)COC(=O)Nc1ccc(S(=O)(=O)C3CC3)c(c1)CN(C)C(=O)[C@@H]2Nc1ccc2c(N)nccc2c1` came in with an EC in [9] of 1.1 µM. The molecule further gave a bioavailability in data set [4] of 1%. In [5], this molecule gave a clearance of 29 mL/min/kg. In data set [6], the half-life at 3 µM came out at 1.77 h.

The values are drawn from ChEMBL document CHEMBL3853337, “Synthesis and P1' SAR exploration of potent macrocyclic tissue factor-factor VIIa inhibitors” (Bioorg Med Chem Lett, 2016).
